# Results as given in patent publication US8802674B2, “Aminopyrimidine derivatives as LRRK2 modulators” (Genentech, Inc., priority 2011, dated 2014).
# Target: LRRK2 (Homo sapiens (Human), UniProt Q5S007, G2019S)
# Experiment: In Vitro LRRK2 LabChip Assay
# Assay type: biochemical
# Conditions: Table 4
# Experimental: In Vitro LRRK2 LabChip Assay
# This assay was used to determine a compound's potency in inhibiting activity of LRRK2 by determining, Kiapp, IC50, or percent inhibition values. In a polypropylene plate, LRRK2, fluorescently-labeled peptide substrate, ATP and test compound were incubated together. Using a LabChip 3000 (Caliper Life Sciences), after the reaction the substrate was separated by capillary electrophoresis into two populations: phosphorylated and unphosphorylated. The relative amounts of each were quantitated by fluorescence intensity. LRRK2 Ki was determined according to the equation: Y=V0*(1−((x+Ki*(1+S/Km)+Et)/(2*Et)−(((x+Ki*(1+S/Km)+Et)^2−(4*Et*x))^0.5)/(2*Et))). Ki values in Table 4 and elsewhere herein are shown in μM.
# Assay conditions and materials used were as follows:
# Compound Plate Preparation:
# For serial dilutions, 34.6 μl DMSO was added to columns 3-24. For the assay controls, 37.5 μl DMSO was added to columns 1 and 2 of rows A and P. a,d and 50 μl 25 μM G-028831 (Staurosporine) was added to columns 1 and 2, row B. For the samples: to start at 100 μM, 37.5 μl DMSO was to columns 1 and 2, then 12.5 μl 10 mM compound; to start at 10 μM, 78 μl DMSO was added to columns 1 & 2, then 2 μl 10 mM compound; and to start at 1 μM, 25 μM compound (2 μl 10 mM cmpd+798 μl DMSO) was added to empty columns 1 and 2. A Precision instrument was used to perform 1:3.16 serial dilutions (“PLK_BM_serial_halflog”).
# ATP was diluted to 282.1 μM in Complete Kinase Buffer (final concentration was 130 μM).
# Total and Blank Preparation:
# In Complete Reaction Buffer, substrate was diluted to 4 μM. Equal volumes of Complete Reaction Buffer and 4 μM substrate were combined to obtain the blank. Equal volumes of Complete Reaction Buffer and 4 μM substrate were combined and to the combined solution was added 2× final LRRK2 concentration.
# To a 50 μl polypropylene plate, 5 μl/well buffer/substrate was added by hand to Blank wells. A Biomek FX was used to start the kinase reaction (“PLK SAR 23 ATP”). The following were added to the appropriate wells:
# 5 μl/well compound/ATP in Assay Plate;
# 5 μl/well kinase/substrate in Assay Plate;
# The plate was incubated for 2 hours in the dark. Biomek FX was used to stop the kinase reaction (“PLK Stop”), and 10 μl/well Stop solution was added to the Assay Plate. Results were read on the LabChip 3000.
# The LabChip 3000 was run using the job “LRRK2IC50” with the following job settings: […]
# LRRK2, sequence (Q5S007 970-2527 G2019S limits assumed): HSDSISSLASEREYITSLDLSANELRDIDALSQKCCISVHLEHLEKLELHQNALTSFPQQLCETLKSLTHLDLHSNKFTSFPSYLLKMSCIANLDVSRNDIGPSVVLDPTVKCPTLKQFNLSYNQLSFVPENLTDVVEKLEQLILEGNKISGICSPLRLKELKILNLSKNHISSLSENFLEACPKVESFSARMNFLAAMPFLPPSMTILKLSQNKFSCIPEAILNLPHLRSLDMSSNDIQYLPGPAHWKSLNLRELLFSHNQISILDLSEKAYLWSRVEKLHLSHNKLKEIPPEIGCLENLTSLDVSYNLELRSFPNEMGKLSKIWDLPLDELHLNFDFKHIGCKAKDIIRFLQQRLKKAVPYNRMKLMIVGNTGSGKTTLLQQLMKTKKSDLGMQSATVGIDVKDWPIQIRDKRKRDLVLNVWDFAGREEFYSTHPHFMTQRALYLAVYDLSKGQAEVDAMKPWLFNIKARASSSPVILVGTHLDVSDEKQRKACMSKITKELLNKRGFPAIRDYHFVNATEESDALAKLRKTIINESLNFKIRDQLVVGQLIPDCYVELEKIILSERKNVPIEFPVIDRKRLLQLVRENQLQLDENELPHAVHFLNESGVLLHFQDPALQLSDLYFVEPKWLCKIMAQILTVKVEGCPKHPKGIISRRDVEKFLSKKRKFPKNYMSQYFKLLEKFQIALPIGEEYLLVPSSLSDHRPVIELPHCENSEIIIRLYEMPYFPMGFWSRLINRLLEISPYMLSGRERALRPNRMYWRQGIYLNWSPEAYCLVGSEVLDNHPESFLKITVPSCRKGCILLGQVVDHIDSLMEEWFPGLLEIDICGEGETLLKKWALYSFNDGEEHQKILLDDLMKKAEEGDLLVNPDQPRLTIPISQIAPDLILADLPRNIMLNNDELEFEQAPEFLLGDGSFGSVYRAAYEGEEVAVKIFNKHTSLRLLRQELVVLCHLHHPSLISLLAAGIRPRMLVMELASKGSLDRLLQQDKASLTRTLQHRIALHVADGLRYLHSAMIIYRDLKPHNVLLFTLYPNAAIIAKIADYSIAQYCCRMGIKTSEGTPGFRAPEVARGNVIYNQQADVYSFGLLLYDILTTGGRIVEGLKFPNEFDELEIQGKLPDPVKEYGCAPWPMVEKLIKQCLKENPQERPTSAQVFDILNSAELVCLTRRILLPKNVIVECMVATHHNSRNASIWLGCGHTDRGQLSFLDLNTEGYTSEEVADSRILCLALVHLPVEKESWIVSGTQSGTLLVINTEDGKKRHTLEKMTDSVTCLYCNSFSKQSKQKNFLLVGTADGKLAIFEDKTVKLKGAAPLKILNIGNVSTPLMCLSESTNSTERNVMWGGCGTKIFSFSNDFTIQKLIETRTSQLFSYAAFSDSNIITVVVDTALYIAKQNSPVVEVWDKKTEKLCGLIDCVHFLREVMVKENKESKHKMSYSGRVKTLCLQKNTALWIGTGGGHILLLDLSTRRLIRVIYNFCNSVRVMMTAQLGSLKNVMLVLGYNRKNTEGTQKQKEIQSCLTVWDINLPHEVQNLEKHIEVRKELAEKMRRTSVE
row,Compound,Ki [nM]
1,"CNc1nc(Nc2ccc(C(=O)N3CCC(F)C3)cc2OC)ncc1C#N (stereo in doubt) [Example 210, 2-[4-((R)-3-Fluoropyrrolidine-1-carbonyl)-2-methoxy-phenylamino]-4-methylamino-pyrimidine-5-carbonitrile]",9.3
2,"CNc1nc(Nc2ccc(C(=O)N3CCC(O)CC3)cc2OC)ncc1F [Example 2, [4-(5-Fluoro-4-methylamino-pyrimidin-2-ylamino)-3-methoxy-phenyl]-(4-hydroxy-piperidin-1-yl)-methanone]",44.6
3,"CNc1nc(Nc2ccc(C(=O)N(C)C)cc2OC)ncc1Cl [Example 4, 4-(5-Chloro-4-methylamino-pyrimidin-2-ylamino)-3-methoxy-N,N-dimethyl-benzamide]",6.1
4,"CNc1nc(Nc2ccc(C(=O)NC3CC3)cc2OC)ncc1Cl [Example 5, 4-(5-Chloro-4-methylamino-pyrimidin-2-ylamino)-N-cyclopropyl-3-methoxy-benzamide]",2.4
5,"CNc1nc(Nc2ccc(C(=O)N3CCOCC3)cc2OC(F)F)ncc1Cl [Example 7, [4-(5-Chloro-4-methylamino-pyrimidin-2-ylamino)-3-difluoromethoxy-phenyl]-morpholin-4-yl-methanone]",4.9
6,"CNc1nc(Nc2ccc(C(=O)N3CCN4CCCCC4C3)cc2OC)ncc1Cl (centres unmarked) [Example 8, [4-(5-Chloro-4-methylamino-pyrimidin-2-ylamino)-3-methoxy-phenyl]-(octahydro-pyrido[1,2-a]pyrazin-2-yl)-methanone]",3.5
7,"CNc1nc(Nc2ccc(C(=O)N3CCCC(C(F)(F)F)C3)cc2OC)ncc1Cl (centres unmarked) [Example 26, [4-(5-Chloro-4-methylamino-pyrimidin-2-ylamino)-3-methoxy-phenyl]-(3-trifluoromethyl-piperidin-1-yl)-methanone]",2.8
8,"CCC1(CC)CN(C(=O)c2ccc(Nc3ncc(Cl)c(NC)n3)c(OC)c2)CCO1 [Example 39, [4-(5-Chloro-4-methylamino-pyrimidin-2-ylamino)-3-methoxy-phenyl]-(2,2-diethyl-morpholin-4-yl)-methanone]",5.5
9,"CNc1nc(Nc2ccc(C(=O)N3CCOCC3CO)cc2OC)ncc1Cl (centres unmarked) [Example 40, [4-(5-Chloro-4-methylamino-pyrimidin-2-ylamino)-3-methoxy-phenyl]-(3-hydroxymethyl-morpholin-4-yl)-methanone]",4.4
10,"CCOc1cc(C(=O)N2CCOCC2)ccc1Nc1ncc(Cl)c(NC)n1 [Example 49, [4-(5-Chloro-4-methylamino-pyrimidin-2-ylamino)-3-ethoxy-phenyl]-morpholin-4-yl-methanone]",4.3
11,"CNc1nc(Nc2ccc(C(=O)N3CCOCC3)cc2OC)ncc1C(F)(F)F [Example 50, [3-Methoxy-4-(4-methylamino-5-trifluoromethyl-pyrimidin-2-ylamino)-phenyl]-morpholin-4-yl-methanone]",2.7
12,"CNc1nc(Nc2ccc(C(N)=O)cc2OC)ncc1Cl [Example 51, 4-(5-Chloro-4-methylamino-pyrimidin-2-ylamino)-3-methoxy-benzamide]",5.1
13,"CNc1nc(Nc2ccc(C(=O)NC(C)C)cc2OC)ncc1Cl [Example 53, 4-(5-Chloro-4-methylamino-pyrimidin-2-ylamino)-N-isopropyl-3-methoxy-benzamide]",2
14,"CNc1nc(Nc2ccc(C(=O)N3C4CCC3COC4)cc2OC)ncc1Cl [Example 57, [4-(5-Chloro-4-methylamino-pyrimidin-2-ylamino)-3-methoxy-phenyl]-(3-oxa-8-aza-bicyclo[3.2.1]oct-8-yl)-methanone]",2.5
15,"COc1cc(C(=O)N2CCOCC2)ccc1Nc1ncc(Cl)c(OC(C)C)n1 [Example 59, [4-(5-Chloro-4-isopropoxy-pyrimidin-2-ylamino)-3-methoxy-phenyl]-morpholin-4-yl-methanone]",13
16,"COc1cc(C(=O)N2CCOCC2)ccc1Nc1ncc(Cl)c(OC)n1 [Example 61, [4-(5-Chloro-4-methoxy-pyrimidin-2-ylamino)-3-methoxy-phenyl]-morpholin-4-yl-methanone]",10.4
17,"CNc1nc(Nc2ccc(C(=O)NCCCN)cc2OC)ncc1Cl [Example 65, N-(3-Amino-propyl)-4-(5-chloro-4-methylamino-pyrimidin-2-ylamino)-3-methoxy-benzamide]",2.3
18,"CNc1nc(Nc2ccc(C(=O)N3CCOCC3)cc2OC)ncc1C1CC1 [Example 66, [4-(5-Cyclopropyl-4-methylamino-pyrimidin-2-ylamino)-3-methoxy-phenyl]-morpholin-4-yl-methanone]",35.9
19,"COc1cc(C(=O)N2CCOCC2)ccc1Nc1ncc(Cl)c(NCC(C)C)n1 [Example 67, [4-(5-Chloro-4-isobutylamino-pyrimidin-2-ylamino)-3-methoxy-phenyl]-morpholin-4-yl-methanone]",4
20,"CNc1nc(Nc2ccc(C(=O)N3CCN(C(=O)C4CC4)CC3)cc2OC)ncc1Cl [Example 70, [4-(5-Chloro-4-methylamino-pyrimidin-2-ylamino)-3-methoxy-phenyl]-(4-cyclopropanecarbonyl-piperazin-1-yl)-methanone]",2.2

# Now from value to molecule:
row,Ki [nM],Compound
1,6.2,"CNc1nc(Nc2ccc(C(=O)N3CC(C)CC(C)C3)cc2OC)ncc1Cl (centres unmarked) [Example 11, [4-(5-Chloro-4-methylamino-pyrimidin-2-ylamino)-3-methoxy-phenyl]-(3,5-dimethyl-piperidin-1-yl)-methanone]"
2,2.5,"CNc1nc(Nc2ccc(C(=O)N3CCCCC3)cc2OC)ncc1Cl [Example 15, [4-(5-Chloro-4-methylamino-pyrimidin-2-ylamino)-3-methoxy-phenyl]-piperidin-1-yl-methanone]"
3,5.2,"CNc1nc(Nc2ccc(C(=O)N3CCC3)cc2OC)ncc1Cl [Example 16, Azetidin-1-yl-[4-(5-chloro-4-methylamino-pyrimidin-2-ylamino)-3-methoxy-phenyl]-methanone]"
4,3,"CNc1nc(Nc2ccc(C(=O)N3CCC(F)(F)CC3)cc2OC)ncc1Cl [Example 17, [4-(5-Chloro-4-methylamino-pyrimidin-2-ylamino)-3-methoxy-phenyl]-(4,4-difluoro-piperidin-1-yl)-methanone]"
5,3.4,"CNc1nc(Nc2ccc(C(=O)N3CCN(C(C)=O)CC3)cc2OC)ncc1Cl [Example 25, l-{4-[4-(5-Chloro-4-methylamino-pyrimidin-2-ylamino)-3-methoxy-benzoyl]-piperazin-1-yl}-ethanone]"
6,3.8,"CNc1nc(Nc2ccc(C(=O)N3CCCC3C)cc2OC)ncc1Cl (centres unmarked) [Example 29, [4-(5-Chloro-4-methylamino-pyrimidin-2-ylamino)-3-methoxy-phenyl]-(2-methyl-pyrrolidin-1-yl)-methanone]"
7,4.7,"CNc1nc(Nc2ccc(C(=O)N3CCCC3)cc2OC)ncc1Cl [Example 32, [4-(5-Chloro-4-methylamino-pyrimidin-2-ylamino)-3-methoxy-phenyl]-pyrrolidin-1-yl-methanone]"
8,3.6,"CNc1nc(Nc2ccc(C(=O)N3CCN(S(C)(=O)=O)CC3)cc2OC)ncc1Cl [Example 33, [4-(5-Chloro-4-methylamino-pyrimidin-2-ylamino)-3-methoxy-phenyl]-(4-methanesulfonyl-piperazin-1-yl)-methanone]"
9,4.2,"CNc1nc(Nc2ccc(C(=O)N3CCOC(CC(C)C)C3)cc2OC)ncc1Cl (centres unmarked) [Example 41, [4-(5-Chloro-4-methylamino-pyrimidin-2-ylamino)-3-methoxy-phenyl]-(2-isobutyl-morpholin-4-yl)-methanone]"
10,2.8,"CNc1nc(Nc2ccc(C(=O)N3CCNCC3)cc2OC)ncc1Cl [Example 47, [4-(5-Chloro-4-methylamino-pyrimidin-2-ylamino)-3-methoxy-phenyl]-piperazin-1-yl-methanone]"
11,4.5,"CNc1nc(Nc2ccc(C(=O)N3CC4CC3CO4)cc2OC)ncc1Cl (centres unmarked) [Example 62, [4-(5-Chloro-4-methylamino-pyrimidin-2-ylamino)-3-methoxy-phenyl]-(2-oxa-5-aza-bicyclo[2.2.1]hept-5-yl)-methanone]"
12,2,"CNc1nc(Nc2ccc(C(=O)N3CC4CCC(C3)O4)cc2OC)ncc1Cl [Example 63, [4-(5-Chloro-4-methylamino-pyrimidin-2-ylamino)-3-methoxy-phenyl]-(8-oxa-3-aza-bicyclo[3.2.1]oct-3-yl)-methanone]"
